Assay results published in patent US20220338504A1 (priority 2017, published 2022).
Read-outs that look alike come from different tables or passages of the source. Marks after values point to notes of the source that are not given here.

Legend:
C. perfringens [1] = format: in vivo, broilers (male Ross×Ross chicks); settings: Virginiamycin 20 g/ton, formulated yeast 0.5 lb/ton, ground pepper 0.3 lb/ton, combination 0.3 + 0.5 lb/ton
C. perfringens [2] = format: in vivo, broilers (male Ross×Ross chicks); settings: 20 g/ton
[3] = test system: E. maxima and C. perfringens; format: in vivo, broilers (male Cobb×Cobb chicks); settings: challenged, BMD 50.0 g/ton, encapsulated ground pepper 300 g/ton
[4] = test system: E. maxima and C. perfringens; format: in vivo, broilers (male Cobb×Cobb chicks)
[5] = test system: Clostridium perfringens strain #6 (with coccidia / E. maxima); format: in vivo, broilers (male Ross×Ross chicks)
[6] = test system: E. maxima and C. perfringens; format: in vivo, broilers (male Cobb×Cobb chicks); remark: listed apart in the source
[7] = test system: E. maxima and C. perfringens; format: in vivo, broilers (male Cobb×Cobb chicks); remark: listed apart in the source
[8] = test system: E. maxima and C. perfringens; format: in vivo, broilers (male Cobb×Cobb chicks); remark: listed apart in the source
[9] = 0-21 d, challenged, BMD 50.0 g/ton, combination 4.0 lb/ton + 3 × 10^5 cfu/g
[10] = 0-28 d, challenged, BMD 50.0 g/ton, combination 4.0 lb/ton + 3 × 10^5 cfu/g
[11] = 14-21 d, challenged, BMD 50.0 g/ton, combination 4.0 lb/ton + 3 × 10^5 cfu/g
[12] = 14-28 d, challenged, BMD 50.0 g/ton, combination 4.0 lb/ton + 3 × 10^5 cfu/g
[13] = 0-21 d, challenged, BMD 50.0 g/ton, combination 0.3 lb/ton + 3 × 10^5 cfu/g
[14] = 0-28 d, challenged, BMD 50.0 g/ton, combination 0.3 lb/ton + 3 × 10^5 cfu/g
[15] = 14-21 d, challenged, BMD 50.0 g/ton, combination 0.3 lb/ton + 3 × 10^5 cfu/g
[16] = 14-28 d, challenged, BMD 50.0 g/ton, combination 0.3 lb/ton + 3 × 10^5 cfu/g
[17] = 0-21 d, challenged, BMD 50.0 g/ton, combination 0.30 lb/ton + 0.5 lb/ton + 3 × 10^5 cfu/g
[18] = 0-28 d, challenged, BMD 50.0 g/ton, combination 0.30 lb/ton + 0.5 lb/ton + 3 × 10^5 cfu/g
[19] = 14-21 d, challenged, BMD 50.0 g/ton, combination 0.30 lb/ton + 0.5 lb/ton + 3 × 10^5 cfu/g
[20] = 14-28 d, challenged, BMD 50.0 g/ton, combination 0.30 lb/ton + 0.5 lb/ton + 3 × 10^5 cfu/g
[21] = 0-21 d, challenged, BMD 50.0 g/ton, combination 0.5 lb/ton + 3 × 10^5 cfu/g
[22] = 0-28 d, challenged, BMD 50.0 g/ton, combination 0.5 lb/ton + 3 × 10^5 cfu/g
[23] = 14-21 d, challenged, BMD 50.0 g/ton, combination 0.5 lb/ton + 3 × 10^5 cfu/g
[24] = 14-28 d, challenged, BMD 50.0 g/ton, combination 0.5 lb/ton + 3 × 10^5 cfu/g

## Virginiamycin
C. perfringens [1]; 15 d
  Body weight gain: 0.38 kg
  Feed Conversion: 1.32^xy
  Feed consumption: 0.44^ab Kg
C. perfringens [1]; 35 d
  Body weight gain: 1.57^xy Kg
  Feed Conversion: 1.73
  Feed consumption: 2.62 kg
C. perfringens [1]; 42 d
  Body weight gain: 2.17 kg
  Feed Conversion: 1.76
  Feed consumption: 3.70 kg
C. perfringens [1]
  Necrotic enteritis related mortality, %: 3.50%
  Total Mortality %: 0.50%
C. perfringens [2]
  Total Mortality %: 5.36%
C. perfringens [2]; 15 d
  Body weight gain: 0.33 kg
  Feed Conversion: 1.33^b
  Feed consumption: 0.39 kg
C. perfringens [2]; 35 d
  Body weight gain: 1.10^ab Kg
  Feed Conversion: 1.62^abc
  Feed consumption: 1.73^x Kg
C. perfringens [2]; 42 d
  Body weight gain: 2.27 kg
  Feed Conversion: 1.74^abc
  Feed consumption: 3.90^xy Kg

## bacitracin methylene disalycilate [BMD]
[3]; 0-21 d
  Body weight gain: 0.44 kg
  Feed Conversion: 1.79^ab
  Feed consumption: 0.79 kg
[3]; 0-28 d
  Body weight gain: 0.65 kg
  Feed Conversion: 1.88^b
  Feed consumption: 1.22 kg
[3]; 14-21 d
  Body weight gain: 0.16^b Kg
  Feed Conversion: 2.56^b
  Feed consumption: 0.41 kg
[3]; 14-28 d
  Body weight gain: 0.37^ab Kg
  Feed Conversion: 2.58^b
  Feed consumption: 0.95 kg
[3]; DOT 21, 0 to 3 score, 0 normal, 3 most severe
  Necrotic enteritis lesion score: 1.1^b
[3]
  Necrotic enteritis related mortality, %: 28.1^b %
[4]; [9]
  Body weight gain: 0.57^a Kg
  Feed Conversion: 1.53^c
  Feed consumption: 0.87 kg
[4]; [10]
  Body weight gain: 0.81^a Kg
  Feed Conversion: 1.60^b
  Feed consumption: 1.30 kg
[4]; [11]
  Body weight gain: 0.32^ab Kg
  Feed Conversion: 1.72^b
  Feed consumption: 0.55 kg
[4]; [12]
  Body weight gain: 0.56^a Kg
  Feed Conversion: 1.75^b
  Feed consumption: 0.98^a Kg
[4]; DOT 21, 0 to 3 score, challenged, BMD 50.0 g/ton, combination 4.0 lb/ton + 3 × 10^5 cfu/g
  Necrotic enteritis lesion score: 0.79^b
[4]; P<0.05
  Necrotic enteritis lesion score compared to the challenged control birds: lower
[4]; challenged, BMD 50.0 g/ton, combination 4.0 lb/ton + 3 × 10^5 cfu/g
  Necrotic enteritis related mortality, %: 0.0^b %
[4]; d 0-28
  overall FCR compared to the challenged control birds: reduced
  overall body weight gain compared to the challenged control birds: increased
[4]; d 14-28, P<0.05
  FCR compared to the challenge control birds: decreased
  body weight gain compared to the challenge control birds: increased
[4]; in vivo
  controlling C. perfringens disease challenge: effective
  necrotic enteritis mortality compared to the challenged control group: lower
[5]; 28 days of age, P<0.05
  FCR compared to birds fed with no feed additive: decreased
  body weight gain compared to birds fed with no feed additive: increased
[5]; 41 days of age, P<0.05
  Body weight gain compared to the control fed birds: increased
  FCR compared to the no feed additive control group: decreased
[5]; in vivo
  Necrotic enteritis lesion score compared to the no feed additive control fed birds: numerically reduced
  controlling C. perfringens disease challenge: effective
  necrotic enteritis related mortality compared to the no feed additive control fed birds: numerically reduced
[6]; [13]
  Body weight gain: 0.66^a Kg
  Feed Conversion: 1.62^ab
  Feed consumption: 1.07 kg
[6]; [14]
  Body weight gain: 0.92^ab Kg
  Feed Conversion: 1.67^a
  Feed consumption: 1.54 kg
[6]; [15]
  Body weight gain: 0.30^b Kg
  Feed Conversion: 1.95^b
  Feed consumption: 0.58 kg
[6]; [16]
  Body weight gain: 0.56^ab Kg
  Feed Conversion: 1.93^b
  Feed consumption: 1.08 kg
[6]; DOT 21, 0 to 3 score, challenged, BMD 50.0 g/ton, combination 0.3 lb/ton + 3 × 10^5 cfu/g
  Necrotic enteritis lesion score: 0.50^b
[6]; P<0.05
  Necrotic enteritis lesion score compared to the challenged control birds: lower
[6]; challenged, BMD 50.0 g/ton, combination 0.3 lb/ton + 3 × 10^5 cfu/g
  Necrotic enteritis related mortality, %: 0.0%
[6]; d 0-28
  overall body weight gain compared to the challenged control: increased
[6]; d 14-28, P<0.05
  FCR compared to the challenge control birds: decreased
  body weight gain compared to the challenge control birds: increased
[6]; in vivo
  controlling C. perfringens disease challenge: effective
[7]; [17]
  Body weight gain: 0.52^ab Kg
  Feed Conversion: 1.81^a
  Feed consumption: 0.94 kg
[7]; [18]
  Body weight gain: 0.77 kg
  Feed Conversion: 1.78^b
  Feed consumption: 1.37 kg
[7]; [19]
  Body weight gain: 0.28^b Kg
  Feed Conversion: 1.77^b
  Feed consumption: 0.49 kg
[7]; [20]
  Body weight gain: 0.53 kg
  Feed Conversion: 1.73^bc
  Feed consumption: 0.91 kg
[7]; DOT 21, 0 to 3 score, challenged, BMD 50.0 g/ton, combination 0.30 lb/ton + 0.5 lb/ton + 3 × 10^5 cfu/g
  Necrotic enteritis lesion score: 0.5^b
[7]; P<0.05
  Necrotic enteritis lesion scores compared to the challenged control birds: lower
  Overall FCR compared to the challenged no feed additive control: reduced
  necrotic enteritis related mortality compared to the challenged control birds: lower
[7]; challenged, BMD 50.0 g/ton, combination 0.30 lb/ton + 0.5 lb/ton + 3 × 10^5 cfu/g
  Necrotic enteritis related mortality, %: 2^b %
[7]; d 14-28, P<0.05
  FCR compared to the challenge control birds: decreased
[7]; in vivo
  Body weight gain compared to the challenged no feed additive control group: not impacted
  controlling C. perfringens disease challenge: effective
[8]; [21]
  Body weight gain: 0.34^a Kg
  Feed Conversion: 2.21^b
  Feed consumption: 0.75 kg
[8]; [22]
  Body weight gain: 0.57 kg
  Feed Conversion: 2.08^b
  Feed consumption: 1.19 kg
[8]; [23]
  Body weight gain: 0.15^bc Kg
  Feed Conversion: 2.30^b
  Feed consumption: 0.34 kg
[8]; [24]
  Body weight gain: 0.38^ab Kg
  Feed Conversion: 2.05^b
  Feed consumption: 0.78 kg
[8]; DOT 21, 0 to 3 score, challenged, BMD 50.0 g/ton, combination 0.5 lb/ton + 3 × 10^5 cfu/g
  Necrotic enteritis lesion score: 0.3^c
[8]; P<0.05
  Necrotic enteritis lesion score compared to the challenged control birds: lower
  necrotic enteritis mortality compared to the challenged control group: decreased
[8]; challenged, BMD 50.0 g/ton, combination 0.5 lb/ton + 3 × 10^5 cfu/g
  Necrotic enteritis related mortality, %: 3^b %
[8]; d 0-28, P<0.05
  overall FCR compared to the challenged control birds: decreased
[8]; d 14-28
  body weight gain compared to the challenge control birds: similar
[8]; d 14-28, P<0.05
  FCR compared to the challenge control birds: decreased
[8]; in vivo
  controlling C. perfringens disease challenge: effective
